Results: patent EP0430983B1, “USE OF CASTANOSPERMINE AS AN ANTI-INFLAMMATORY AND IMMUNOSUPPRESSANT AGENT” (THE AUSTRALIAN NATIONAL UNIVERSITY, priority 1988, dated 1990)
Values joined by “and” are separate entries in the source; they are usually repeats but may differ in a detail not shown here. Equal entries are not always repeated.

Key:
passive EAE = assay: Passively induced experimental allergic encephalomyelitis (passive EAE), clinical grading and CNS histology; format: in vivo, Lewis (RT-1') rats; conditions: for protection against clinical EAE: osmotic pump implanted at time of cell transfer; for mean clinical score: score out of possible 5 ± standard errors
[1] = Preliminary toxicity studies; format: in vivo; conditions: 500 mg/kg/day for 7 days; animals observed for a 6 week period after treatment; data not shown
[2] = test system: passively induced adjuvant arthritis; assay: Passively induced adjuvant arthritis, change in foot volume; format: in vivo, (DAxLewis)F₁ rats; conditions: for % Δ in foot volume: 350 mg/kg/day s.c. osmotic pump from cell transfer, individual rats, 350 mg/kg/day
Procedure: (DAxLewis)F₁ rats were immunized with 3mg M.butyricum in light mineral oil injected intradermally in both hind feet. Ten days later spleens were removed and made into a single cell suspension in RPMI containing 5% fetal calf serum, 200mM L Glutamine, 5 x 10⁻ ⁵M 2-ME, penicillin and streptomycin. Cells were adjusted to 2 x 10⁶ cells/ml, and cultured in 50ml media in 75mm culture flasks. ConA was added at 2µg/ml and cultures incubated for 72hrs at 37°C in an atmosphere of 10% CO₂, 7% O₂ and the balance N₂. Cells were then washed and transferred at 50 x 10⁶ or 60 x 10⁶ cells/rat i.v. into 10 weeks old male (DAxLewis)F₁.
Castanospermine was put in osmotic pumps (Alza Corp.) which delivered 5µl/hr for 14 days. Pumps were implanted subcutaneously at the time of cell transfer. Rats received 350mg/kg/day of castanospermine.
Hind feet of rats were measured in 4 diameters beginning the day of cell transfer. The measurements are averaged and expressed as % change in volume of feet.
Two experiments have been performed both treating rats with 350mg/kg/day castanospermine beginning the day of cell transfer.

pancreatic islets = assay: Transplantation of allogeneic pancreatic islets, graft rejection by blood glucose; format: in vivo, CBA mice
Procedure: Donor mice were Balb/c (H2^d) and recipients were CBA (H2^k). Donor pancreatic islets were prepared using standard techniques. Approximately 400 islets were isolated from 10 donor mice. These freshly isolated islets, in groups of 50, were placed into CBA blood clots and these were placed under the kidney capsule of CBA mice which were diabetic (blood glucose 20mM/litre).
Two recipients were implanted (subcutaneously) with miniosmotic pumps containing CS at the time of islet transplantation. These pumps delivered CS at a dose of 300 mg/kg/mouse/day for a period of 14 days. Two control mice were sham operated.
Blood samples (10µl) were taken daily and assayed for blood glucose using an automatic analyser (Beckman Glucose Analyzer 2).
All transplant recipients became normoglycaemic within 24 hours indicating successful transplantation of all of the grafts. Rejection of grafts was assumed to occur when animals became hyperglycaemic. Control animals rejected on days 9 and 12.

renal allografts = assay: Renal allograft survival; format: in vivo, DA rats; conditions: pump; for No. of rats surviving more than 14 days: DA rats with (DA/LEW) renal allografts; for No. of days of Survival: the rat surviving more than 14 days
Excerpt: One kidney from each rat was replaced with a donor kidney, after which the remaining original rat kidney was removed. The results are set out in Table 5 below: Table 5

[3] = test system: Delayed hypersensitivity (DTH); assay: Delayed hypersensitivity (DTH) to sheep red blood cells, foot swelling; format: in vivo, C57BL mice; conditions: CS ip every 4 hours from footpad testing, total 300 mg/kg/mouse over 24 hrs; 5 mice/group; control group 33%
Procedure: C57BL mice were given 10⁸ sheep red blood cells (SRBC) intravenously. Five days later 10⁵ SRBC in a volume of […] was injected into the left hind footpad and […] saline into the right. Castanospermine was given every 4 hours ip beginning at the time of footpad testing. Total dose of CS over 24 hrs was 300 mg/kg/mouse. Control mice were given saline every 4 hours, and 5 mice/group were used in both test and control groups.

[4] = Table 1, CS 100 mg/kg/day, s.c. miniosmotic pump at time of cell transfer
[5] = Table 1, CS 200 mg/kg/day, s.c. miniosmotic pump at time of cell transfer

SMILES: O[C@H]1[C@H](O)[C@@H](O)CN2CC[C@H](O)[C@H]12 [CS, Castanospermine]
- protection against clinical EAE (passive EAE; 100 mg/kg/day): no protective effect
- protection against clinical EAE (passive EAE; 200 mg/kg/day): only partial protection
- number of inflammatory lesions in CNS tissues (histology) (passive EAE; 300 mg/kg/day from cell transfer, rats killed at day 8, compared with untreated rats): approximately the same number of inflammatory lesions as untreated rats
- protection against clinical EAE (passive EAE; 300 mg/kg/day): complete protection
- mean day of onset (passive EAE; [4]): 4±0
- mean clinical score (passive EAE; [4]): 4.0±0
- animals with EAE (passive EAE; Table 1, CS 100 mg/kg/day, s.c. miniosmotic pump placed at time of cell transfer): 4/4
- mean day of onset (passive EAE; [5]): 5±0
- mean clinical score (passive EAE; [5]): 2.0±0
- animals with EAE (passive EAE; Table 1, CS 200 mg/kg/day, s.c. miniosmotic pump placed at time of cell transfer): 4/4
- animals with EAE (passive EAE; Table 1, CS 300 mg/kg/day, s.c. miniosmotic pump placed at time of cell transfer): 0/4
- animals with EAE (passive EAE; Table 2, convalescent rats (compromised blood-brain barrier), CS 300 mg/kg/day, s.c. miniosmotic pump at time of secondary cell transfer): 0/4
- animals with EAE (passive EAE; Table 2, naive rats, CS 300 mg/kg/day, s.c. miniosmotic pump at time of cell transfer): 0/4
- animals with EAE (passive EAE; Table 3, experiment 1, CS 150 mg/kg i.p., 12 hourly, initiated on day 4 (before clinical signs), for 3 days): 0/3
- animals with EAE (passive EAE; Table 3, experiment 2, CS 150 mg/kg i.p., 12 hourly, initiated on day 4 (after onset of signs)): 3/3
- mean clinical score (passive EAE; Table 3, experiment 2, CS 150 mg/kg i.p., 12 hourly, initiated on day 4): 4±0
- animals with EAE (passive EAE; Table 3, experiment 3, CS 300 mg/kg osmotic pump, initiated on day 4 (after onset of signs)): 5/5
- mean clinical score (passive EAE; Table 3, experiment 3, CS 300 mg/kg osmotic pump, initiated on day 4): 4±0
- clinical signs of EAE with delayed treatment (passive EAE; exp.1, two 150 mg/kg i.p. injections daily from 4 days after cell transfer for 3 days, signs in untreated animals not apparent until day 6): did not develop clinical signs of EAE
- clinical signs of EAE with delayed treatment (passive EAE; exp.3, osmotic pumps implanted on day 4 after cell transfer, all animals showed mild clinical signs on day 4): failed to modify subsequent disease expression
- second episode of passively induced EAE (passive EAE; rats recovered from one episode, pump delivering 300 mg/kg/day on the day of secondary transfer): did not develop a second episode of the disease
- toxic effect [1]: no apparent toxic effect
- % Δ in foot volume ([2]; Exp 1, 50 x 10^6 cells, Day 7): -5% and 5% and 0% and +12%
- % Δ in foot volume ([2]; Exp 1, 50 x 10^6 cells, Day 14): -1% and 0% and +9% and +4%
- inflammation of feet ([2]; Exp 1 and Exp 2, 350 mg/kg/day from cell transfer): In no case did any of the CS treated rats show inflammation
- % Δ in foot volume ([2]; Exp 2, 60 x 10^6 cells, Day 7): -5% and -7% and -3% and +3%
- % Δ in foot volume ([2]; Exp 2, 60 x 10^6 cells, Day 14): -8% and -18% and -14% and -1%
- swelling and inflammation after end of treatment ([2]; Exp 2, pumps removed on day 15, animals followed out to day 28+): remained normal
- day of graft rejection (hyperglycaemia) (pancreatic islets; Balb/c islets in diabetic CBA mice, 300 mg/kg/mouse/day s.c. miniosmotic pump for 14 days, one mouse, controls rejected on days 9 and 12): 19 days
- day of graft rejection (hyperglycaemia) (pancreatic islets; other CS treated mouse, whose miniosmotic pump was found not to have delivered its CS payload): 12 days
- No. of rats surviving more than 14 days (renal allografts; 100mg/kg, 9 rats): 1
- No. of days of Survival (renal allografts; 100mg/kg): 100 days
- No. of rats surviving more than 14 days (renal allografts; 250mg/kg, 7 rats): 1
- No. of days of Survival (renal allografts; 250mg/kg): 33 days
- increase in foot swelling [3]: 11%
